Measurements: ChEMBL document CHEMBL1201862, “PubChem BioAssay data set” (2004)
The source made the active and inactive calls.

Key:
cells [1] = format: functional, cell-based
[2] = biological target: Arf-GAP with SH3 domain, ANK repeat and PH domain-containing protein 1 (Homo sapiens, UniProt Q9ULH1); format: functional;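 also: biochemical fluorescence polarization dose–response screen measuring inhibition of ASAP1; ASAP1 GAP domain stimulating GTP hydrolysis by truncated human ARF1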
[3] = biological target: ADP-ribosylation factor GTPase-activating protein 1 (Rattus norvegicus, UniProt Q62848); assay: Fluorescence polarization-based biochemical high throughput dose response screening assay to identify inhibitors of ADP-ribosylation factor GTPase activating protein 1 (ARFGAP1).; format: functional
ADP-ribosylation factor GTPase-activating protein 1, sequence (Q62848 whole entry): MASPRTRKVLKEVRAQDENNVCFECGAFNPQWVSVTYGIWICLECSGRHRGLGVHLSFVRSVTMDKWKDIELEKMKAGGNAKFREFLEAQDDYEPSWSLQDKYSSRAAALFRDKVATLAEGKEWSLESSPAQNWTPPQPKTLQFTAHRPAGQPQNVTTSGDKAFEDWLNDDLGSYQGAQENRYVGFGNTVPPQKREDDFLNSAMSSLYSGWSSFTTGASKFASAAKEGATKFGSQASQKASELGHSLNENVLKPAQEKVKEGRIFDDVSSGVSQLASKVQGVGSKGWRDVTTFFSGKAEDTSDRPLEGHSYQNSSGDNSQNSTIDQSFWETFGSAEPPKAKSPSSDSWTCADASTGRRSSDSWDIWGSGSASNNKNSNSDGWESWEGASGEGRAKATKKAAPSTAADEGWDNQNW

cells [4] = format: functional, cell-based; remark: listed apart in the source
[5] = biological target: 26S proteasome non-ATPase regulatory subunit 14 (Homo sapiens, UniProt O00487); assay: inhibition of proteasome subunit RPN11 – biochemical, fluorescence polarization, uHTS hits, confirmation (AID 602368); format: functional
26S proteasome non-ATPase regulatory subunit 14, sequence (O00487 whole entry): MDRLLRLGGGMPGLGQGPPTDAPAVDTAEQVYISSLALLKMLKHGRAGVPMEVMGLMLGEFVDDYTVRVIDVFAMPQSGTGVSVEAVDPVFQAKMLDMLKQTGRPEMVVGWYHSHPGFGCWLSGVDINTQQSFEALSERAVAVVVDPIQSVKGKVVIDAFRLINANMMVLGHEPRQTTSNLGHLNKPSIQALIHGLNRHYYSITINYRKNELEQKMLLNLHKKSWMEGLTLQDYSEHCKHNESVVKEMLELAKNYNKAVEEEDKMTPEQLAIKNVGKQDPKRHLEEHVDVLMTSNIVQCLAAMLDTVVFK

[6] = viability of HCT116 lacking mutant beta-catenin – cell-based, human colon tumor, dose response (AID 1045); format: functional;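 also: HCT116 colon tumor cells with beta catenin knocked out; cells exposed to compound for 60 hours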
[7] = viability of PTEN-deleted HCT116 cells – cell-based, HCT116 PTEN knockout, dose response (AID 1047); format: functional;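 also: HCT116 colon tumor cells with PTEN knocked out; cells exposed to compound for 60 hours before readout; potency for loss of cell viability measured by luminescence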
Prothrombin = Prothrombin (Bos taurus, UniProt P00735); assay: thrombin protease inhibitors – biochemical, fluorescence polarization, uHTS hits, dose response (AID 602369); format: functional
[8] = biological target: 72 kDa type IV collagenase (Homo sapiens, UniProt P08253); assay: Dose Response validation of uHTS RPN11 inhibitor hits using a MMP-2 Fluorescence assay.; format: functional
72 kDa type IV collagenase, sequence (P08253 whole entry): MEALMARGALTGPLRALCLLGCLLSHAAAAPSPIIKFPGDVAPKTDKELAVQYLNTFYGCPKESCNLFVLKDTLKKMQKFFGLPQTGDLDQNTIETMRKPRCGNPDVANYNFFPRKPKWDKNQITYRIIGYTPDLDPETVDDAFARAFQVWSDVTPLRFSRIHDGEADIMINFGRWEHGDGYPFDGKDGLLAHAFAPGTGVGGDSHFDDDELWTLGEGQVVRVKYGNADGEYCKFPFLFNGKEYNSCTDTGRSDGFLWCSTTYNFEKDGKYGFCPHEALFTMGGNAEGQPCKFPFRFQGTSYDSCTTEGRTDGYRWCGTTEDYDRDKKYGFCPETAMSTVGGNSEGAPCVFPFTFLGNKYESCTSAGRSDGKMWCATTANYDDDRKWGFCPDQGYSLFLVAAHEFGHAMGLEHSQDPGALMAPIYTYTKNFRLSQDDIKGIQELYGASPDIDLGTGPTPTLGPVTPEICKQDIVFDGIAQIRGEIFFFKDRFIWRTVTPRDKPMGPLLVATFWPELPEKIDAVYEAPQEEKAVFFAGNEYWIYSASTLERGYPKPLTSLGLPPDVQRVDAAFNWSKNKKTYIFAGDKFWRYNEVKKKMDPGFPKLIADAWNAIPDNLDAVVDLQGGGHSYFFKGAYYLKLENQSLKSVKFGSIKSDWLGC

HEK293 [9] = assay: cells; format: functional, cell-based; conditions: Homo sapiens
[10] = biological target: T1, Methionyl-tRNA synthetase, putative (Trypanosoma brucei brucei, UniProt Q38C91); format: functional, Trypanosoma brucei brucei strain 927/4 GUTat10.1
T1 sequence (Q38C91 whole entry): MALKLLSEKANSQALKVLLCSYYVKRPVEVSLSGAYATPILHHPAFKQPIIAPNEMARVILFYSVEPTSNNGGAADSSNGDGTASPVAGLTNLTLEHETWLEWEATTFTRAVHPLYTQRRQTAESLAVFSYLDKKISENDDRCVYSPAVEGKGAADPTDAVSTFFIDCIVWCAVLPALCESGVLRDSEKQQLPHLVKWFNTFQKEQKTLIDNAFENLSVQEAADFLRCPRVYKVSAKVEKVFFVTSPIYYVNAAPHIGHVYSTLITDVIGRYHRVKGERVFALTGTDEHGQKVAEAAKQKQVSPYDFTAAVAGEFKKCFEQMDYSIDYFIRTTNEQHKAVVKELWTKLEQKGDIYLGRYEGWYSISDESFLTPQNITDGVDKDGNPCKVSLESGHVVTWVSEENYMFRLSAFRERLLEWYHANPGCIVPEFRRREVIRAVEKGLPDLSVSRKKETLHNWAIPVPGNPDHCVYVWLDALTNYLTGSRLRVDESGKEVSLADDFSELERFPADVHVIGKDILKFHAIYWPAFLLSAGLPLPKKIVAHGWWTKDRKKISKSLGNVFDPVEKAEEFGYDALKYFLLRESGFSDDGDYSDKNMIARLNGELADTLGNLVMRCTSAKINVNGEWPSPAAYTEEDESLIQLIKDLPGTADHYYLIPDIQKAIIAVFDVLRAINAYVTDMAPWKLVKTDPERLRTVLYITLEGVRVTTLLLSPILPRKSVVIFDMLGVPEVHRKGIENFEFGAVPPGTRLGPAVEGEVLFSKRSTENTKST

HEK293 [11] = assay: cells; format: functional, cell-based; conditions: Homo sapiens; remark: listed apart in the source
HEK293 [12] = assay: inhibition of NOD1-driven NF-kB reporter – cell-based, luminescence, uHTS, primary screen (AID 1578); format: functional; conditions: Homo sapiens
[13] = NIH3T3 cell viability loss – ATP luminescence, mouse fibroblasts, counter-screen, dose response (AID 2010); format: functional, cell-based;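 also: cells exposed to compound for about 90 hours before reading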
HEK293 [14] = assay: NOD2 signaling inhibitors in MDP-stimulated cells, cell-based, uHTS, luminescence (AID 2001); format: functional; conditions: Homo sapiens
[15] = Counterscreen for inhibitors of Trypanosoma brucei methionyl tRNA synthetase (MetRS): Luminescence-based cell-based high throughput dose response assay to identify compounds that are cytotoxic to Jurkat human T lymphocyte cells.; format: functional
[16] = Trypanosoma cruzi growth suppression in host cells – NIH3T3 host cells, beta-gal luminescence, confirmation (AID 2044); format: functional, cell-based;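 also: intracellular parasites grown in NIH/3T3 mouse fibroblasts as host cells; luminescent beta-galactosidase reporter signal from transgenic T. cruzi replicating inside host cells; inhibitors lower the luminescence signal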
[17] = biological target: T1, Methionyl-tRNA synthetase, putative; format: functional, Trypanosoma brucei brucei strain 927/4 GUTat10.1; remark: listed apart in the source
[18] = nonselective StAR promoter luciferase inhibitors – cell-based, luminescence, luciferase reporter, counter-screen for LRH-1 inverse agonist project, dose response (AID 651969); format: functional
Steroidogenic factor 1 = Steroidogenic factor 1 (Homo sapiens, UniProt Q13285); assay: Counterscreen for inverse agonists of the liver receptor homolog-1 (LRH-1; NR5A2): Luminescence-based cell-based high throughput dose response assay to identify inverse agonists of the Steroidogenic Factor 1 Nuclear Receptor (SF1; NR5A1).; format: functional
Steroidogenic factor 1, sequence (Q13285 whole entry): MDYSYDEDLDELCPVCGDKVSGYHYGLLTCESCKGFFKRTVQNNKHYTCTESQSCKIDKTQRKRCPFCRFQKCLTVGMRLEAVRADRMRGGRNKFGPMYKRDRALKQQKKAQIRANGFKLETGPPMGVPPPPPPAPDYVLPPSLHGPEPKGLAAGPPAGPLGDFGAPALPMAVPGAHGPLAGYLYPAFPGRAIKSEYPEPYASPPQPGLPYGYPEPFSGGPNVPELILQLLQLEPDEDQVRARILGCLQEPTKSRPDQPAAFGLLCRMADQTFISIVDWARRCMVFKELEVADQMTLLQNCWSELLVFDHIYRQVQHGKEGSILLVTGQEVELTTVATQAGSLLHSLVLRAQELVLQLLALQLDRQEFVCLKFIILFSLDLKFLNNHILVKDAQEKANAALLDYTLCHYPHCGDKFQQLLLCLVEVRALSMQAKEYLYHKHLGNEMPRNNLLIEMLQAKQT

[19] = biological target: Nuclear receptor subfamily 5 group A member 2 (Homo sapiens, UniProt O00482); format: functional, cell-based;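 also: HEK293T cells transfected with LRH-1 and a StAR promoter luciferase reporter; potency for inhibitors that lower LRH-1 driven reporter light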
Nuclear receptor subfamily 5 group A member 2, sequence (O00482 whole entry): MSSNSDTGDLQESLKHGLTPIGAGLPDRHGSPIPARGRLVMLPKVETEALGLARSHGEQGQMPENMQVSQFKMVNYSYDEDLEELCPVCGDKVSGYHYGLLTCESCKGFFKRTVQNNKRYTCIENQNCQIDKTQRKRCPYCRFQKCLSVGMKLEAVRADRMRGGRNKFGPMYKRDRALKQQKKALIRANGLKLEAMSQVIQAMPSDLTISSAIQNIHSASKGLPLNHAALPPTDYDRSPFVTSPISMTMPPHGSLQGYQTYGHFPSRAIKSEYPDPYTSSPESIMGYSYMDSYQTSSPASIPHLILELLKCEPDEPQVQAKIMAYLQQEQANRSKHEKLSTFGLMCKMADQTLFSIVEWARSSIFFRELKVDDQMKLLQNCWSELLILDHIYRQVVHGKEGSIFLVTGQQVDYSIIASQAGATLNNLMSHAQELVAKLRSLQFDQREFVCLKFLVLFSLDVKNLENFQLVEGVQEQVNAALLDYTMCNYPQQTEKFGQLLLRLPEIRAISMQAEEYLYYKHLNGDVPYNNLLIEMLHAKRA

Arf-GAP with SH3 domain, ANK repeat and PH domain-containing protein 1, sequence (Q9ULH1 whole entry, the tested form may be a part): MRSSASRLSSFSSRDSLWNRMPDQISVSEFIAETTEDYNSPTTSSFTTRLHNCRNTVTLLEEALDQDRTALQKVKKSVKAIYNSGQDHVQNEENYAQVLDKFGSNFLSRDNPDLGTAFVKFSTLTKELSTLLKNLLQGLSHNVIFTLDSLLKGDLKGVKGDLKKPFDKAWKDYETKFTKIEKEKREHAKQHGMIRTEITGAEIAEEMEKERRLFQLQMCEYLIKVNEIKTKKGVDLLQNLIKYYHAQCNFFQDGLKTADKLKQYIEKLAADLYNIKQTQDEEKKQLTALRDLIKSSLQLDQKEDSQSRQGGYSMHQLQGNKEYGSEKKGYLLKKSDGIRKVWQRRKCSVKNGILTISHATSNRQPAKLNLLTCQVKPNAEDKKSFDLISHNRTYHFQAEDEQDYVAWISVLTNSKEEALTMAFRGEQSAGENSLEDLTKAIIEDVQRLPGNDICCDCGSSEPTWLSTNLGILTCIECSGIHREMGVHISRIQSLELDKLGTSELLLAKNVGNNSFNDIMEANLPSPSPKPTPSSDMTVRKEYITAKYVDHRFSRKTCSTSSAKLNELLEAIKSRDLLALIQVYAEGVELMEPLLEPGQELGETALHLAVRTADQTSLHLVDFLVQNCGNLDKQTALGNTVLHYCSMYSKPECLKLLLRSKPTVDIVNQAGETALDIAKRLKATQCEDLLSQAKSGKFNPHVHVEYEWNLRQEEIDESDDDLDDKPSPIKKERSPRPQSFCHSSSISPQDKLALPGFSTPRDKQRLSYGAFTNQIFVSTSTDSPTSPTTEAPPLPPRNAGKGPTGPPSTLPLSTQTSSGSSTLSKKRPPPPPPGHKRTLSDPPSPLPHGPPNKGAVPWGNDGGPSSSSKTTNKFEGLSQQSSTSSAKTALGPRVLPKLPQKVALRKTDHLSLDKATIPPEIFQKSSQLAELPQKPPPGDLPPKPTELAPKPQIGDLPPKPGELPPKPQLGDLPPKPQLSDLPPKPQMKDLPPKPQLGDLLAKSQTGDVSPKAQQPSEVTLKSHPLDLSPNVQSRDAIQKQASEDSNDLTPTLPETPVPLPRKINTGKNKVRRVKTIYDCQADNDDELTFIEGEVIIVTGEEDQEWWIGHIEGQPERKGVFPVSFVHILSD

Structure (SMILES) | IC50 [2] | IC50 [3] | IC50 [10] | IC50 [15] | IC50 [17] | IC50 [18] | IC50 (Steroidogenic factor 1) | IC50 [19] | further results
Cc1ccc2nc(SCC(=O)N3CCCCCC3)nc(=O)n2c1 | 30.7 µM (inactive) | 23.1 µM (inactive) | – | – | – | – | – | – | EC50 (cells [1]): > 350 µM (not active); EC50 (cells [4]): > 350 µM (not active)
Nc1nc(SCc2ccc(Cl)cc2Cl)nc2nc3c(cc12)CCCC3 | 17.7 µM (inactive) | 23.8 µM (inactive) | – | – | – | – | – | – | IC50 [5]: 41.4 µM (active); EC50 [6]: 13.3 µM (active); EC50 [7]: 14.4 µM (active); IC50 (Prothrombin): 39.2 µM (active); IC50 [8]: > 100 µM (inactive)
COc1ccccc1NS(=O)(=O)c1cccc(NC(=O)Nc2ccc(Cl)cc2)c1 | – | – | 39.5 µM (inactive) | 65.3 µM (inactive) | 5.53 µM (active) | – | – | – | IC50 (HEK293 [9]): 7.01 µM (active); IC50 (HEK293 [11]): 6.59 µM (active); EC50 (HEK293 [12]): > 20 µM (inactive); EC50 [13]: > 60 µM (not active); IC50 (HEK293 [14]): 5.81 µM (inactive); EC50 [16]: 1.8 µM (active)
COc1ccc(CC(NC(C)=O)C(=O)NC2CCN(c3nnnn3-c3ccccc3)CC2)cc1 (centres undefined) | – | – | – | – | – | 35.9 µM (inactive) | 11.3 µM (inactive) | 16.5 µM (inactive) | –
N#Cc1ccc(CSc2nnc(Nc3ccccc3)s2)cc1 | – | – | 119 µM (inactive) | 83.3 µM (inactive) | 7.66 µM (active) | – | – | – | –
O=C(CSc1nc(=O)n2cc(Cl)ccc2n1)Nc1ccc2c(c1)OCCO2 | – | – | – | – | – | 35.9 µM (inactive) | 35.9 µM (inactive) | 35.9 µM (inactive) | –
